From US12171230B2, “Herbicidal compositions” (Bayer Aktiengesellschaft, priority 2018, dated 2024)

Tests used:
Format in all cases: in vivo
Galium aparine = test: Post-emergence herbicidal action against Galium aparine; conditions: for Herbicidal action: 28 DAT
Procedure, shortened: (§1)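 Visual scoring against untreated controls, made 3 to 4 weeks after treatment, gives the % efficacy. Plants grown in pots of sandy loam were sprayed on green parts at the three-leaf stage with formulated compositions at 300 to 800 l/ha water. Combination efficacy above the Colby expected value indicates synergism.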

Poa annua = test: Post-emergence herbicidal action against Poa annua
Procedure, shortened: as §1

Lamium purpureum = test: Post-emergence herbicidal action against Lamium purpureum; conditions: for Herbicidal action: 1 g a.i./ha
Protocol: When the observed efficacies exceed the formal sum total of the values of the tests with individual applications, they also exceed the expected value according to Colby, which is calculated using the formula below and is likewise regarded as an indication of synergism (cf. S. R. Colby; in Weeds 15 (1967) p. 20 to 22): E^C=A+B−([…])
Here: • A=efficacy of the active compound (A) in % at an application rate of a g a.i./ha; • B=efficacy of the active compound (B) in % at an application rate of b g a.i./ha; • E^C=expected value of the effect of the combination (A)+(B) in % at the combined application rate a+b g a.i./ha.
Seeds or rhizome pieces of mono- and dicotyledonous weeds are placed in sandy loam in pots, covered with soil and grown in a greenhouse under good growth conditions (temperature, air humidity, water supply). Three weeks after sowing, the test plants were treated at the three-leaf stage with the compositions according to the invention. The compositions according to the invention formulated as spray powders or as emulsion concentrates were sprayed onto the green plant parts in various dosages with an application rate of 300 to 800 l/ha of water (equivalent). After the test plants have been left to stand in the greenhouse under optimal growth conditions for about 3 to 4 weeks, the action of the preparations is scored visually in comparison to untreated controls. The compositions according to the invention also have good post-emergence herbicidal activity against a broad spectrum of economically important gramineous and broadleaf weeds.

Viola tricolor [1] = test: Post-emergence herbicidal action against Viola tricolor
Bromus sterilis [2] = test: Post-emergence herbicidal action against Bromus sterilis
Lolium rigidum [3] = test: Post-emergence herbicidal action against Lolium rigidum
Description: (§2) The following abbreviations are used in the description and the tables that follow: • g of a.i./ha=grams of active substance (active ingredient) (=100% active compound) per hectare; • The sum total of the effects of the individual applications is reported under E^A; • expected values according to Colby are each reported under E^C.
(§3) The rating period is reported in days after application (DAT).

Viola tricolor [4] = test: Post-emergence herbicidal action against Viola tricolor; conditions: (Z119) post-emergence; g of a.i./ha: 16, 270, 16 + 270
Description: as §2, §3

Bromus sterilis [5] = test: Post-emergence herbicidal action against Bromus sterilis; remark: listed apart in the source
Description: as §2, §3

[6] = tested on: Lolium rigidum (resistant biotype); test: Post-emergence herbicidal action against Lolium rigidum (resistant biotype); conditions: (Z119) post-emergence; g of a.i./ha: 1, 270, 1 + 270
Procedure, shortened: (§4)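 Colby-derived expected values (E^C) and the summed effects of the separate applications (E^A) accompany each rating. Active substance was dosed in grams per hectare on a 100% active-compound basis, with the rating period given as DAT.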

Centaurea cyano = test: Post-emergence herbicidal action against Centaurea cyano
Procedure, shortened: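 Formulations (spray powders or emulsion concentrates) applied at various doses onto foliage using 300 to 800 l/ha water; plants treated at three-leaf stage, three weeks post-sowing in sandy loam under greenhouse conditions.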

Lolium rigidum [7] = test: Post-emergence herbicidal action against Lolium rigidum; remark: listed apart in the source
Alopecurus myosuroides = test: Post-emergence herbicidal action against Alopecurus myosuroides
Description: as §2, §3

Phalaris minor [8] = test: Post-emergence herbicidal action against Phalaris minor; conditions: (Z119) post-emergence; for Herbicidal action 28 DAT against Phalaris minor: g of a.i./ha: 16, 4, 270, 90, 30, 16 + 270, 16 + 90, 16 + 30, 4 + 270, 4 + 30
Procedure, shortened: as §4

Matricaria inodora = test: Post-emergence herbicidal action against Matricaria inodora; conditions: for Herbicidal action: 1 g a.i./ha
Phalaris minor [9] = test: Post-emergence herbicidal action against Phalaris minor
Phalaris minor [10] = test: as above; remark: listed apart in the source
[11] = tested on: Lolium rigidum (resistant biotype); test: Post-emergence herbicidal action against Lolium rigidum (resistant biotype)
Veronica hederifolia = test: Post-emergence herbicidal action against Veronica hederifolia; conditions: 0.17 g of a.i./ha

C=C[C@]1(C(=O)N[C@@H]2C=C(C(=O)OC)OC2)CC(c2cc(F)cc(F)c2)=NO1 [Compound A5, methyl (3R)-3-[[(5S)-3-(3,5-difluorophenyl)-5-vinyl-4H-isoxazole-5-carbonyl]amino]-2,3-dihydrofuran-5-carboxylate]
Herbicidal action (Galium aparine; 1 g a.i./ha): 50%
Herbicidal action (Galium aparine; 16 g a.i./ha): 70%
Herbicidal action 14 DAT against Galium aparine (Galium aparine; (Z119) post-emergence, g of a.i./ha by row: 1, 30, 1 + 30): 60%
Herbicidal action (Poa annua; 14 DAT, 1 g a.i./ha): 30%
Herbicidal action (Poa annua; 14 DAT, 16 g a.i./ha): 70%
Herbicidal action (Poa annua; 28 DAT, 1 g a.i./ha): 20%
Herbicidal action (Lamium purpureum; 14 DAT): 60%
Herbicidal action (Lamium purpureum; 28 DAT): 40%
Herbicidal action 14 DAT against Lamium purpureum L. (Lamium purpureum; (Z119) post-emergence, g of a.i./ha by row: 16, 30, 16 + 30): 80%
Herbicidal action (Viola tricolor [1]; 14 DAT, 16 g a.i./ha): 60%
Herbicidal action (Viola tricolor [1]; 28 DAT, 4 g a.i./ha): 40%
Herbicidal action (Viola tricolor [1]; 28 DAT, 16 g a.i./ha): 40%
Herbicidal action (Bromus sterilis [2]; 14 DAT, 4 g a.i./ha): 75%
Herbicidal action (Bromus sterilis [2]; 14 DAT, 16 g a.i./ha): 80%
Herbicidal action (Bromus sterilis [2]; 28 DAT, 1 g a.i./ha): 30%
Herbicidal action 28 DAT against Lolium rigidum (Lolium rigidum [3]; (Z119) post-emergence, g of a.i./ha: 16, 4, 1, 270, 90, 30, 16 + 270, 16 + 90, 16 + 30, 4 + 270, 4 + 90, 4 + 30, 1 + 270, 1 g of a.i./ha): 30%
Herbicidal action 28 DAT against Lolium rigidum (Lolium rigidum [3]; (Z119) post-emergence, g of a.i./ha: 16, 4, 1, 270, 90, 30, 16 + 270, 16 + 90, 16 + 30, 4 + 270, 4 + 90, 4 + 30, 1 + 270, 4 g of a.i./ha): 50%
Herbicidal action 28 DAT against Lolium rigidum (Lolium rigidum [3]; (Z119) post-emergence, g of a.i./ha: 16, 4, 1, 270, 90, 30, 16 + 270, 16 + 90, 16 + 30, 4 + 270, 4 + 90, 4 + 30, 1 + 270, 16 g of a.i./ha): 60%
Herbicidal action 14 DAT against Viola tricolor (Viola tricolor [4]): 60%
Herbicidal action 28 DAT against Bromus sterilis (Bromus sterilis [5]; (Z119) post-emergence, g of a.i./ha: 1, 270, 1 + 270): 30%
Herbicidal action 14 DAT against Bromus sterilis (Bromus sterilis [5]; (Z119) post-emergence, g of a.i./ha: 1, 270, 90, 1 + 270, 1 + 90): 50%
Herbicidal action 28 DAT against Lolium rigidum (resistant biotype) [6]: 20%
Herbicidal action (Centaurea cyano; 14 DAT, 1 g a.i./ha): 20%
Herbicidal action (Centaurea cyano; 28 DAT, 16 g a.i./ha): 75%
Herbicidal action 28 DAT against Centaurea cyanus (Centaurea cyano; (Z119) post-emergence, g of a.i./ha: 16, 270, 90, 30, 16 + 270, 16 + 90, 16 + 30): 75%
Herbicidal action (Lolium rigidum [7]; 14 DAT, 1 g a.i./ha): 30%
Herbicidal action (Lolium rigidum [7]; 14 DAT, resistant biotype, 1 g a.i./ha): 30%
Herbicidal action (Lolium rigidum [7]; 14 DAT, resistant biotype, 16 g a.i./ha): 70%
Herbicidal action (Lolium rigidum [7]; 28 DAT, 1 g a.i./ha): 30%
Herbicidal action (Lolium rigidum [7]; 28 DAT, 16 g a.i./ha): 60%
Herbicidal action (Lolium rigidum [7]; 28 DAT, resistant biotype, 1 g a.i./ha): 20%
Herbicidal action 14 DAT against Alopecurus myosuroides (Alopecurus myosuroides; (Z119) post-emergence, g of a.i./ha: 16, 1, 270, 16 + 270, 1 + 270, 1 g of a.i./ha): 50%
Herbicidal action 14 DAT against Alopecurus myosuroides (Alopecurus myosuroides; (Z119) post-emergence, g of a.i./ha: 16, 1, 270, 16 + 270, 1 + 270, 16 g of a.i./ha): 85%
Herbicidal action 28 DAT against Phalaris minor (Phalaris minor [8]; 4 g of a.i./ha): 60%
Herbicidal action 28 DAT against Phalaris minor (Phalaris minor [8]; 16 g of a.i./ha): 70%
Herbicidal action 14 DAT against Phalaris minor (Phalaris minor [8]; g of a.i./ha: 16, 4, 270, 90, 270, 16 + 270, 16 + 90, 4 + 270): 85%
Herbicidal action (Matricaria inodora; 14 DAT): 30%
Herbicidal action (Matricaria inodora; 28 DAT): 10%
Herbicidal action (Phalaris minor [9]; 14 DAT, 1 g a.i./ha): 60%
Herbicidal action (Phalaris minor [9]; 14 DAT, 16 g a.i./ha): 85%
Herbicidal action (Phalaris minor [9]; 28 DAT, 1 g a.i./ha): 30%
Herbicidal action (Phalaris minor [9]; 28 DAT, 16 g a.i./ha): 70%

COc1nn(C(=O)NS(=O)(=O)c2c(C(=O)O)csc2C)c(=O)n1C [(B2.68) Thiencarbazone]
Herbicidal action against Phalaris minor (Phalaris minor [10]; 14 DAT, 0.17 g of a.i./ha): 0%
Herbicidal action against Phalaris minor (Phalaris minor [10]; 14 DAT, 0.5 g of a.i./ha): 15%
Herbicidal action against Phalaris minor (Phalaris minor [10]; 14 DAT, 1.5 g of a.i./ha): 10%
Herbicidal action against Phalaris minor (Phalaris minor [10]; 28 DAT, 0.5 g of a.i./ha): 0%
Herbicidal action against Phalaris minor (Phalaris minor [10]; 28 DAT, 1.5 g of a.i./ha): 20%
Herbicidal action 14 DAT against Galium aparine (Galium aparine; 0.17 g of a.i./ha): 60%
Herbicidal action 28 DAT against Galium aparine (Galium aparine; 0.17 g of a.i./ha): 50%
Herbicidal action against Poa annua L. (Poa annua; 14 DAT, 0.5 g of a.i./ha): 10%
Herbicidal action against Poa annua L. (Poa annua; 14 DAT, 1.5 g of a.i./ha): 15%
Herbicidal action against Poa annua L. (Poa annua; 28 DAT, 0.5 g of a.i./ha): 0%
Herbicidal action against Poa annua L. (Poa annua; 28 DAT, 1.5 g of a.i./ha): 25%
Herbicidal action 28 DAT against Lamium purpureum L. (Lamium purpureum; 0.17 g of a.i./ha): 35%
Herbicidal action against Lolium rigidum (resistant biotype) ([11]; 14 DAT, 0.17 g of a.i./ha): 0%
Herbicidal action against Lolium rigidum (resistant biotype) ([11]; 14 DAT, 0.5 g of a.i./ha): 0%
Herbicidal action against Lolium rigidum (resistant biotype) ([11]; 14 DAT, 1.5 g of a.i./ha): 0%
Herbicidal action against Lolium rigidum (resistant biotype) ([11]; 28 DAT, 0.5 g of a.i./ha): 10%
Herbicidal action against Lolium rigidum (resistant biotype) ([11]; 28 DAT, 1.5 g of a.i./ha): 20%
Herbicidal action against Veronica hederifolia (Veronica hederifolia; 14 DAT): 70%
Herbicidal action against Veronica hederifolia (Veronica hederifolia; 28 DAT): 70%
Herbicidal action 14 DAT against Lolium rigidum (Lolium rigidum [3]; 0.5 g of a.i./ha): 60%
Herbicidal action 28 DAT against Lolium rigidum (Lolium rigidum [3]; 0.5 g of a.i./ha): 10%
Herbicidal action 14 DAT against Lolium rigidum (Lolium rigidum [3]; 1.5 g of a.i./ha): 85%
Herbicidal action 28 DAT against Lolium rigidum (Lolium rigidum [3]; 1.5 g of a.i./ha): 50%
Herbicidal action 14 DAT against Bromus sterilis (Bromus sterilis [5]; 0.5 g of a.i./ha): 15%
Herbicidal action 28 DAT against Bromus sterilis (Bromus sterilis [5]; 0.5 g of a.i./ha): 15%
Herbicidal action 14 DAT against Bromus sterilis (Bromus sterilis [5]; 1.5 g of a.i./ha): 20%
Herbicidal action 28 DAT against Bromus sterilis (Bromus sterilis [5]; 1.5 g of a.i./ha): 20%
Herbicidal action 14 DAT against Centaurea cyanus (Centaurea cyano; 0.17 g of a.i./ha): 0%
Herbicidal action 28 DAT against Centaurea cyanus (Centaurea cyano; 0.17 g of a.i./ha): 0%
Herbicidal action 28 DAT against Centaurea cyanus (Centaurea cyano; 1.5 g of a.i./ha): 35%
Herbicidal action 14 DAT against Alopecurus myosuroides (Alopecurus myosuroides; 0.5 g of a.i./ha): 40%
Herbicidal action 14 DAT against Alopecurus myosuroides (Alopecurus myosuroides; 1.5 g of a.i./ha): 35%
Herbicidal action 28 DAT against Alopecurus myosuroides (Alopecurus myosuroides; 1.5 g of a.i./ha): 30%
Herbicidal action against Matricaria inodora (Matricaria inodora; 14 DAT, 0.17 g of a.i./ha): 15%
Herbicidal action against Matricaria inodora (Matricaria inodora; 14 DAT, 0.5 g of a.i./ha): 50%
Herbicidal action against Matricaria inodora (Matricaria inodora; 28 DAT, 0.17 g of a.i./ha): 0%
